Data published in patent US8816070B2, “Triazole derivative as an HSP 90 inhibitor” (Merck Patent GmbH, priority 2007, dated 2014).
pIC50: −log10 of the molar value.

Experiments:
[1] = Relative stability of polymorphic forms of C1; format: physicochemical; settings: form A1 versus form A2 of C1
Source text: Two polymorphic forms A1 and A2 of the compound “C1” according to the invention can be isolated.
Form A2 can be converted into A1, for example by stirring in solvents such as methanol, ethanol, acetone, DMF, acetic acid, formic acid, THF or isopropanol.

Recombinant human HSP90α = target: T1, Recombinant human HSP90α (Homo sapiens, UniProt P07900); test: HSP90 radioligand filter binding test ([3H]17AAG competition)
T1 construct: host or cells: E. coli
Source text: The binding of geldanamycin or 17-allylamino-17-demethoxygeldanamycin (17AAG) to HSP90 and competitive inhibition thereof can be utilised in order to determine the inhibitory activity of the compounds according to the invention (Carreras et al. 2003, Chiosis et al. 2002).
In the specific case, a radioligand filter binding test is used. The radioligand used here is tritium-labelled 17-allylaminogeldanamycin, [3H]17AAG. This filter binding test allows a targeted search for inhibitors which interfere with the ATP binding site.
Recombinant human HSP90α (E. coli expressed, 95% purity); [3H]17AAG (17-allylaminogeldanamycin, [allylamino-2,3-^3H. Specific activity: 1.11×10^12 Bq/mmol (Moravek, MT-1717);
HEPES filter buffer (50 mM HEPES, pH 7.0, 5 mM MgCl2, BSA 0.01%) Multiscreen FB (1 μm) filter plate (Millipore, MAFBNOB 50).
The 96-well microtitre filter plates are firstly irrigated and coated with 0.1% of polyethylenimine.
At the end of the reaction, the supernatant in the filter plate is removed by suction with the aid of a vacuum manifold (Multiscreen Separation System, Millipore), and the filter is washed twice.
The filter plates are then measured in a beta counter (Microbeta, Wallac) with scintillator (Microscint 20, Packard).
“% of control” is determined from the “counts per minutes” values and the IC50 value of a compound is calculated therefrom.

thermodynamic stability of polymorphic form [1] | higher activity in HSP90 inhibition compared with "A47" (Recombinant human HSP90α; C1 versus A47 from the closest prior art) | pIC50 (Recombinant human HSP90α; [3H]17AAG 0.08 μM, 22° C., 30 min, read-out: HSP90 inhibition IC50) | SMILES
thermodynamically more stable form |  |  | CCCCN(C)C(=O)c1cc(-c2nnc(O)n2-c2ccccc2C)c(O)cc1O [Form A1, 5-[4-(2-methylphenyl)-3-hydroxy-4H-1,2,4-triazol-5-yl]-2,4-dihydroxy-N-methyl-N-butylbenzamide]
 | approximately 10 times | 7.54 | CCCCN(C)C(=O)c1cc(-c2n[nH]c(=O)n2-c2ccccc2C)c(O)cc1O [Compound C1, 5-[4-(2-methylphenyl)-3-hydroxy-4H-1,2,4-triazol-5-yl]-2,4-dihydroxy-N-methyl-N-butylbenzamide]
